These results are taken from ChEMBL document CHEMBL1137513, “Synthesis and biological activities of quinazoline derivatives with ortho-phenol-quaternary ammonium salt groups” (Bioorg Med Chem, 2007).

Calls of active or inactive are those of the source. The calls are words filed in the database; no cut-off is given here.

The test system of test [1] is DNA. Description: Binding affinity to calf thymus DNA at 2 uM by thermal denaturation study. Type of test: nucleic-acid assay. As to conditions: Bos taurus.
The subject of test [2] is Escherichia phage T7. Description: Inhibition of T7 RNA polymerase transcription at 10 uM after irradiation. The format is functional.
The subject of test [3] is Escherichia phage T7. Briefly: Inhibition of T7 RNA polymerase transcription at 5 uM after irradiation. Type of test: functional.
In test [4] the test system is Escherichia phage T7. Description: Inhibition of T7 RNA polymerase transcription at 20 uM after irradiation. The format is functional.
The subject of test [5] is Escherichia coli. Briefly: Induction of pBR322 DNA interstand cross link at 100 uM by agarose gel electrophoresis assay.
The subject of test [6] is Escherichia coli. Briefly: Induction of pBR322 DNA interstand cross link at pH 7.7 by agarose gel electrophoresis assay.
In test [7] the test system is Escherichia coli. Description: Induction of pBR322 DNA interstand cross link at 1 uM by agarose gel electrophoresis assay.
The subject of test [8] is Escherichia coli. Description: Induction of pBR322 DNA interstand cross link at 5 uM by agarose gel electrophoresis assay.

For orientation: ΔTm means the shift of the melting midpoint relative to a reference. For the compound `COc1cc2nc(Cl)nc(Nc3ccc(O)c(C[N+](C)(C)C)c3)c2cc1OC`, in test [1], the ΔTm was determined as 5.8 °C. The result in test [2] and in test [3] was Active.
Take `COc1cc2nc(Nc3ccc(O)c(C[N+](C)(C)C)c3)nc(N)c2cc1OC`: the ΔTm in test [1] is 7.4 °C. Further, the result in test [2] and in test [3] was Active.
Turning to `C[N+](C)(C)Cc1cc(CCC(=O)NCCNC(=O)CCc2ccc(O)c(C[N+](C)(C)C)c2)ccc1O`, the outcome in test [4] and in test [5] was inactive. Also, the ΔTm in test [1] amounted to 0.5 °C.
Turning to `COc1cc2nc(Nc3ccc(O)c(C[N+](C)(C)C)c3)nc(Nc3ccc(O)c(C[N+](C)(C)C)c3)c2cc1OC`, the result in test [6], in test [2], in test [5] and in test [3] was Active. Further, the Activity in test [7] came to 28%; in test [8], 46%. In addition, the ΔTm in test [1] was 8.6 °C.
